The Papp is a coefficient for how fast a substance crosses the barrier.

A short description of data set [1]: Transport experiment in the in vitro BBB cell model. The class given is in vitro ADME. Particulars: Sprague-Dawley, rat, C0 20 μM, apical to basolateral, mean ± SD (n = 3-4), read-out: Papp × 10^−6. How it is done: (§1) Rat brain microvascular endothelial cells (BMECs) were separated from the cerebral cortex of 18-day-old male Sprague-Dawley rats as described previously ([Biegel et al., 1995]). Briefly, the cerebral cortical tissues were dissected from meninges after the rats were sacrificed, then the tissues were homogenated in physiological buffer solution (pH 7.4). After centrifugation, the pellets were collected, and the microvascular segments were then digested with 0.1% collagenase II at 37°C for 1 h. […] The second passage was used for co-culture of BBB cellular models.
Astrocytes were separated from the cerebral cortex of newborn Sprague-Dawley rats (1–2 days) as described previously ([Jeliazkova-Mecheva and Bobilya, 2003]). The brain tissues (removal of the meninges and blood vessel) were minced and mechanical homogenized and then digested with 0.25% trypsin-EDTA at 37°C for 10 min.
The in vitro BBB cell model was constructed in the Transwell 24well plate ([…], Millipore, USA). Before the experiment, the transwell filters were coated with matrigel matrix. The isolated rat astroglias were seeded onto one side of polycarbonate inserts (5 × 10^4 cells/insert). After 3 to 5 days, the rat BMECs were seeded at a density of 1.5 × 10^5 cells/insert onto the opposite side of the inserts to produce rat BMEC monolayers. The in vitro BBB cell model was formed 3 to 4 days. Trans-epithelial electrical resistance (TEER) measurements were performed everyday after the co-cultures formed until the TEER value increased to […] ([Yang et al., 2014]) ( Figure 2C ).
The transport experiments were performed by adding 400 μl HBSS containing the compounds to the apical side (AP), with 600μl HBSS to the basolateral side (BL) at the same time. Samples (60 μl) were collected from the BL chamber at the time points of 15, 30, 60, 90, 120, and 180 min, and the corresponding volume of HBSS buffer was immediately added into the BL chamber. The samples were precipitated by methanol, and the concentrations of the compounds in the samples were determined by high-performance liquid chromatography (HPLC). The HPLC conditions were as follows: Agilent TC-C18 column (250 × 4.6 mm; 5 μm), methanol 1% ethanoic acid mobile phase (from 10:90 to 90:10, v/v), with gradient elution at a flow rate of 1.0 ml/min. The detection wavelength was 275 nm for these compounds. The run time was 20 min. The apparent permeability coefficients (P app) were calculated from the following formula: P app = (∆Q/∆t)/(A × C 0), where ∆Q/∆t is the linear appearance rate of the compound on the BL side (μmol/s), A is the surface area of the cell monolayer (cm^2), and C 0 is the initial concentration of the drug on the AP side (μmol/L).

For another data set, the system named is rat BMECs. In words: Cytotoxicity of apocynin derivatives on rat BMECs (MTT, 24 h). The class given is cell-based. The note with it: 100 μM, vs control, P < 0.05. How it is done: as §1
Rat BMECs were collected and seeded into 96-well culture plates at a density of 7.5 × 10^3 cells/well overnight. The cells were treated with different concentrations of the compounds (10, 20, and 100 μM) for 24 h, respectively. Then, 20-μl MTT (5 mg/ml) in fresh medium was added to each well and incubated for another 4 h. Finally, 150μl dimethyl sulfoxide (DMSO) was added to dissolve formazan crystals, and the absorbance was detected at 490 nm in a multiwall-plate reader (BioTek ELx800).

For data set [2], the system named is NADPH oxidase (NOX). Kind of data set: NOX activity determination, U87 cells. The note with it: 20 and 50 μM. The class given is cell-based, human. How it is done: (§2) The effects of candidate drug on NOX activities were measured using cytochrome c reductase (NADPH) Assay Kit (Sigma-Aldrich, St. Louis, MO, USA). Brieﬂy, after the compound treatment (20, 50 μM), the cells were collected and homogenized in an isotonic buffer ([…]), and centrifuged at 1,000 g to obtain the post-nuclear supernatants. Then 50μl samples were added to 950μl working solution (at 25°C) in a 1ml cuvette and mixed by inversion. Then 20μl cytochrome c oxidase inhibitor solution was added. After reaction with 100 μl NADPH solution, the cytochrome c absorbance was monitored at 550 nm by a spectrophotometer.

In data set [3] the test system is NADPH oxidase (NOX). In words: NOX activity determination, C6 cells. The class given is cell-based, rat. Particulars: 20 and 50 μM. The procedure:
as §2

Details of data set [4]: method as in Wang et al., 2008. Particulars: ref Wang et al., 2008; cited from earlier work.

For the molecule `COc1cc(C(C)=O)ccc1O` [Compound D1, 4-hydroxy-3-methoxyacetophenone, reference compound], in data set [1], the apparent permeability coefficient (Papp) at 90 min, 20 μM was 4.95 ± 0.39 ×10⁻⁶ cm/s. The “Effect on cell viability of rat BMECs” value with rat BMECs was “significantly inhibit the cell viability”. Moreover, the “Effect on NOX activities vs control” value in the data set on NADPH oxidase (NOX) [2] and in the data set on NADPH oxidase (NOX) [3] was “significantly inhibited” in each case. The “Amount in the brain tissue relative to that present in the blood” value in data set [4] is on record as less than 8%.

These data come from publication PMC6733959, “Synthesis and Evaluations of Novel Apocynin Derivatives as Anti-Glioma Agents” (Frontiers in Pharmacology, 2019).
